Assays:
Format in all cases: cell-based
[1] = target: T1, L-type calcium channel (LTCC) (Rattus norvegicus, UniProt P22002); experiment: whole-cell patch clamp of ICa,L in A7r5 cells (stimulation); details: read-out: % stimulation above basal at 10 nM
T1 construct: gene Cacna1c; native channel in A7r5 cells

[2] = target: T1, L-type calcium channel (LTCC); experiment: whole-cell patch clamp of ICa,L in A7r5 cells; details: read-out: % of basal current at 1 μM
[3] = target: T1, L-type calcium channel (LTCC); experiment: whole-cell patch clamp of basal and BAY-stimulated ICa,L in A7r5 cells

T1 sequence (P22002 whole entry): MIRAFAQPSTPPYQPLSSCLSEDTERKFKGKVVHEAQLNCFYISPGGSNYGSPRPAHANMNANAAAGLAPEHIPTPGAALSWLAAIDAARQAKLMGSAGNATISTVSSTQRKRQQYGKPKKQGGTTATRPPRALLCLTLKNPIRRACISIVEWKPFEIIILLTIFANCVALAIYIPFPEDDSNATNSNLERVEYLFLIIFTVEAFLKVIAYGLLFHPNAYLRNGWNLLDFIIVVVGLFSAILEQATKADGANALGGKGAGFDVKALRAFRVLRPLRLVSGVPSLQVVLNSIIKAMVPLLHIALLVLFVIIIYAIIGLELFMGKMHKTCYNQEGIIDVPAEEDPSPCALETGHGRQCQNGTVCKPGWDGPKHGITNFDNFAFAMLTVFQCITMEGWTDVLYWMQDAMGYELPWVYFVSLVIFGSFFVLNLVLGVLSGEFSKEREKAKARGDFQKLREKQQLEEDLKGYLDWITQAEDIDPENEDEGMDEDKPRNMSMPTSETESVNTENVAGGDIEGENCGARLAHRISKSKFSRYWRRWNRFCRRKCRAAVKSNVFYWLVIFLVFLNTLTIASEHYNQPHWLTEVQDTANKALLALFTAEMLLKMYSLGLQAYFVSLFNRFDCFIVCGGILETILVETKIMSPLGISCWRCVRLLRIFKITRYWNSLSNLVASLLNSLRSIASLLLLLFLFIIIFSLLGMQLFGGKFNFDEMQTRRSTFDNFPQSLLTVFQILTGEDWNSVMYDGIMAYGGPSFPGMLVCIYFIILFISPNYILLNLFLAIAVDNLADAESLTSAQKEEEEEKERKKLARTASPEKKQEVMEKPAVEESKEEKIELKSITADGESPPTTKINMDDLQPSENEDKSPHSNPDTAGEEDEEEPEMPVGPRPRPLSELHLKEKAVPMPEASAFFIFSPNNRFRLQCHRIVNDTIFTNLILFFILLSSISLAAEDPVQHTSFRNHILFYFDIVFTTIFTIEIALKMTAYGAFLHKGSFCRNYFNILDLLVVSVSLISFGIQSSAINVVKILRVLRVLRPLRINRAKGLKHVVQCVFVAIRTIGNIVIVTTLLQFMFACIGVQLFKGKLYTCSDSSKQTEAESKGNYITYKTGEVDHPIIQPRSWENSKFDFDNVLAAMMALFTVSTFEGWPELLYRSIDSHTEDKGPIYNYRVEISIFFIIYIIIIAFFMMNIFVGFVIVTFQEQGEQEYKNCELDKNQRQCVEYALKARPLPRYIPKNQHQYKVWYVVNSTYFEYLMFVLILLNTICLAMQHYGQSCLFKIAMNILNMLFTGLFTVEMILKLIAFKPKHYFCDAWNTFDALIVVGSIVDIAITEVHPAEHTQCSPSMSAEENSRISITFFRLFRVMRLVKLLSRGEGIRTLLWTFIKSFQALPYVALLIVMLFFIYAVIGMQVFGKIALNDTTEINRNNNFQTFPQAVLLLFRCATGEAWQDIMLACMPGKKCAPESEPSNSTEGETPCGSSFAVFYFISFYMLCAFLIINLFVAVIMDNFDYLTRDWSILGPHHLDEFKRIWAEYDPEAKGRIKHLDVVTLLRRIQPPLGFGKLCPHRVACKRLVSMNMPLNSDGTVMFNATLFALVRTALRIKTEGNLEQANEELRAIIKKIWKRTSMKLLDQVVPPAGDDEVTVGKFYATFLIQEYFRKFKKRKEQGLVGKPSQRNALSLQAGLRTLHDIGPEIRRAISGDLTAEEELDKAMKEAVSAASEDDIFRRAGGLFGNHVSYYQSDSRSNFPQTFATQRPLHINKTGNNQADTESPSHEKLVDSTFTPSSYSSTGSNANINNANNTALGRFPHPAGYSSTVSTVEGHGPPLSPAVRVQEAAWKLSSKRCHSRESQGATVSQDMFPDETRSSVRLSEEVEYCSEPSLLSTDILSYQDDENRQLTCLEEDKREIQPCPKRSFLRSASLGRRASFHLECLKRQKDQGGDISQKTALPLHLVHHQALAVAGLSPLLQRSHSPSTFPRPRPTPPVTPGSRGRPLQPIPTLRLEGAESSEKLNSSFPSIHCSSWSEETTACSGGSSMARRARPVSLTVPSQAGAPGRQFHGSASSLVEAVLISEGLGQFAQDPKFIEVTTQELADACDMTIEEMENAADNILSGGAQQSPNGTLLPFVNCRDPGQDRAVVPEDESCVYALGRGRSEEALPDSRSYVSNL

For `COC(=O)C1=C(C)NC(C)=C([N+](=O)[O-])[C@H]1c1ccccc1C(F)(F)F` [BAY, (−)-Bay K8644], the activation at 0.01 µM [1] was 74.8 ± 5.7%.
Compound `COC(=O)C1=C(C)NC(C)=C(C(=O)OC)C1c1ccccc1[N+](=O)[O-]` [NIF, nifedipine] has an activity at 1 µM [2] of 20.6 ± 2.2%.
With `CC(C)CCC[C@@H](C)[C@H]1CC[C@H]2[C@@H]3CC=C4C[C@@H](O)CC[C@]4(C)[C@H]3CC[C@]12C` [cholesterol] the inhibition at 100 µM [3] was 73.9 ± 16.8%.

Source: publication PMC2990104 (Advances in Pharmacological Sciences, 2010)
